Assay [1] deals with HSV-1. As to the kind of experiment: appearance of resistant HSV-1 mutants following treatment. In kind it is cell-based. The settings on record: for Resistant mutants/10^4 viruses: plaques counted 72 hours later; for HSV-1 mutants resistant, pre-existing within the virus population: approximate restatement of Table 2 (drugs used individually). The protocol: Finally, tests were carried out which aimed at quantifying the appearance of resistant HSV-1 mutants following treatment with acyclovir and BVDU, used individually or in association. For these tests the two compounds were used in concentrations which were 3.3 times (acyclovir) and 1.4 times (BVDU) the ID 100 value, so as to be able to completerly prevent the multiplication of sensitive viruses. For this 5 purpose, […] Vero cells, infected with HSV-1 at a multiplicity of 0.3 PFU/cell, were seeded on a preformed monolayer of uninfected Vero cells and left to adhere for 4 hours at 35°C in T-199 with 2% serum, in the presence of the inhibitors.
The liquid culture medium was then removed and replaced with new medium containing the inhibitors and 0.75% carboxymethylcellulose.
The number of plaques developed following multiplication of resistant viruses was determined 72 hours later.

In assay [2] the test system is type 1 (HSV-1) herpes simplex viruses. The settings on record: background statement; cited from earlier work.
For assay [3], the system named is type 2 (HSV-2) herpes simplex viruses. Conditions: background statement; cited from earlier work.
In assay [4] the test system is herpex simplex virus type 1 (ATCC VR-733). As to the kind of experiment: plaque reduction test in Vero cells. The settings on record: mean of three samples, 72 hours, untreated control 134 plaques. The assay is classed as cell-based. The protocol:
The mutual synergistic activity of acyclovir and BVDU was evaluated on the herpex simplex virus type 1 (ATCC VR-733), grown in Vero cells (ATCC CCL 81) in MEM T-199 containing 2% calf serum.
The method used was the plaque reduction test /P. Collins et al. (1977) Annals, of the New York Academy of Sciences 284, pp. 49-59/. For this purpose, confluent monolayers of Vero cells, seeded in multi-well plates (diameter 3.5 cm) at a concentration of […] cells/plate, were infected with 150 plaque-forming units (PFU) of HSV-1 per plate.
After an adsorption period of one hour at room temperature and removal of the unadsorbed virus, the monolayers were washed with buffered saline solution and then incubated at 35°C, in 5% CO2, in MEM T-199 containing 2% calf serum and 0.75% carboxymethylcellulose, both in the absence and in the presence of the inhibitors.
72 hours later, the infected monolayers were washed three times with saline solution and dyed with a 0.1% methylene blu solution in order to be able to count the number of lysis plaques resulting from the multiplication of the virus.
The number represent the mean value of three samples, and correspond to the number of plaques obtained in the absence or in the presence of acyclovir and BVDU, used either individually or in association.
The above values were then expressed as percentage of the number of plaques obtained in untreated control cultures and plotted, in the ordinate axis, against the logarithm of the concentration used (in abscissa).
This enabled to determine the concentration of the two drugs (alone or in combination) which were necessary for reducing the number of viral plaques by 100% (ID100) […]
A general note: In a plaque reduction assay, fewer plaques than in the control indicate reduced infectivity or spread.

SMILES strings stand for the structures.

For `Nc1nc2c(ncn2COCCO)c(=O)[nH]1` [Acyclovir, 9-(2-hydroxyethoxymethyl) guanine], in assay [1] (Acyclovir 2.5 μM alone), the “Resistant mutants/10^4 viruses” value is reported as 28.6 /10^4 viruses. Moreover, in assay [1], the “HSV-1 mutants resistant, pre-existing within the virus population” value is ~3 per 1000 sensitive viruses. Besides, the “inhibition of the multiplication of HSV-1” value in assay [2] was “inhibits to an equal extent”. In addition, in assay [3], the “inhibition of the multiplication of HSV-2” value is recorded as “inhibits to an equal extent”. Besides, the number of plaques in assay [4] (Acyclovir 0.075 µM alone) is on record as 111; in assay [4] (Acyclovir 0.15 µM alone) it was 99; in assay [4] (Acyclovir 0.3 µM alone) it was 52; in assay [4] (Acyclovir 0.6 µM alone) it was 8; in assay [4] (Acyclovir 1.2 µM alone), 0.
Take `O=c1[nH]c(=O)n([C@H]2C[C@H](O)[C@@H](CO)O2)cc1/C=C/Br` [BVDU, E-5-(2-bromovinyl)-2'-deoxyuridine]: the “Resistant mutants/10^4 viruses” value in assay [1] (BVDU 1.0 μM alone) is 13.8 /10^4 viruses. In addition, the “HSV-1 mutants resistant, pre-existing within the virus population” value in assay [1] is ~1 per 1000 sensitive viruses. Also, in assay [2], the “inhibition of the multiplication of HSV-1” value is given as “effective against HSV-1”. Further, the “inhibition of the multiplication of HSV-2” value in assay [3] was “not against HSV-2”. In addition, the number of plaques in assay [4] (BVDU 0.01 µM alone) is listed as 141; in assay [4] (BVDU 0.02 µM alone), 131; in assay [4] (BVDU 0.04 µM alone) it was 109; in assay [4] (BVDU 0.8 µM alone), 81.

The values above are taken from patent EP0143987A1, “Therapeutic compositions endowed with antiviral activity” (Stendardi, Anna Gioia, priority 1983, dated 1985).
